According to patent US20090215895A1, “Therapeutic and carrier molecules” (PEPLIN BIOLIPIDS PTY LTD, priority 2004, published 2009):

Columns and labels:
HUVEC = assay: Agonist-enhanced neutrophil adherence to HUVEC; assay type: cell-based, human; conditions: for Inhibition of TNF-α-enhanced neutrophil adhesion to HUVEC: 20 μmol/l, 1 hr pre-treatment, TNF 4 hr
Procedure, shortened: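 HUVEC were pre-treated 60 min at 37° C. with fatty acids (20 μmol/l), stimulated with TNF (125 U/200 μl) for 4 hr, then co-incubated 30 min with neutrophils (5×10^5 cells/well). Adherence expressed as % of control, mean±SEM of three triplicate experiments.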

E-selectin = assay: LPS-induced E-selectin expression in aortic endothelium; assay type: in vivo, BALB/c mice; conditions: intravenous, 2 hr before LPS, aortas after 5 hr
Method: FIG. 14 is a representation showing (A) effect of MP3 on in vivo inflammatory response measured as delayed type hypersensitivity (DTH) to sheep erythrocytes and LPS-induced influx of neutrophils and mononuclear cells in the peritoneal cavity in BALB/c mice. In the DTH experiments mice were injected with sheep erythrocytes subcutaneously, challenged with the antigen in the hind foot pad 6 days later and the amount of foot pad swelling measured 48 hr later. One hour prior to challenge mice were given 10 mg/kg body weight of β-oxa fatty acid in 7% w/v, DMSO as vehicle intraperitoneally. For the peritoneal cavity inflammation, mice were given intravenously 40 mg/kg MP3 intravenously and 6 hr later injected with LPS intraperitoneally. The cellular infiltrates were examined 24 and 72 hr later. The data, expressed as % of control, are presented as mean±SEM of 10 and 5 mice for DTH and peritoneal inflammation, respectively. […] The data, expressed as % of control, are presented as mean±SEM of ten mice per group and is representative of two experimental runs. […]
The LPS-induced expression of E-selectin in the aortic endothelium of BALB/c mice was determined following injection of 50 μg LPS intraperitoneally and aortas encompassing the ascending part of the aortic arch through to the bifurcation to the common iliac arteries isolated after 5 hr. […]

NFκB p65 = assay: TNF-stimulated nuclear translocation of NFκB in HUVEC; assay type: cell-based, human; conditions: 20 μmol/l
Method: FIG. 17 is a representation showing (A) the effect of MP3 (β-oxa 23:4n-6) and DHA on TNF-induced degradation of IκBα in HUVEC. Cells were pre-treated with the fatty acids (20 μmol/l) for 30 min and then stimulated with TNF (125 U/ml) for 10 min. After cell lysis the proteins were analyzed by Western blots using anti-IκBα antibodies. (B) The effects of β-oxa-23:4n-6 on TNF-induced activation of transcriptional factor, NFκB in HUVEC. Cells were pre-treated with β-oxa-23:4n-6 (20 μmol/l) for 30 min and then stimulated with TNF for 2 hr. After cell lysis, nuclear fractions were prepared, nuclear proteins separated by SDS PAGE (12% w/v gel), transferred to nitrocellulose and probed with an anti-NFκB p65 antibody (Santa Cruz). […] (C) The effect of β-oxa 23:4n-6 on TNF-stimulated activation of IKK. Cells were pre-treated with β-oxa 23:4n-6 (20 μmol/l) for 30 min and then stimulated with TNF for 5 min. After cell lysis IKK was immunoprecipitated with anti-IKKα antibody and kinase activity determined. […]
Proteins (50 μg) were separated by SDS PAGE (12% w/v gel), transferred to nitrocellulose and probed with an anti-NFκB p65 or anti-IκBα antibody (Santa Cruz Biotech, Santa Cruz, Calif.). Immunocomplexes were detected by enhanced chemiluminescence (Hii et al, 1998 supra).

ERK = assay: TNF-stimulated MAP kinase activity in HUVEC; assay type: cell-based, human; conditions: HUVEC pre-treated with the fatty acid
Method: (§1) ERK and p38 were precipitated with anti-ERK2 (C-14, sc-154) and anti-p38 (C-20, sc-535) antibody, respectively (Santa Cruz Biotech) and the activity determined using myelin basic protein as a substrate (Hii et al, 1995 supra, Hii et al, 1998 supra). JNK activity was determined in a solid phase assay using GST c-Jun (residues-1-79) as a substrate (Hii et al, 1995 supra, Hii et al, 1998 supra).

JNK = assay: TNF-stimulated MAP kinase activity in HUVEC; assay type: cell-based, human; conditions: HUVEC pre-treated with the fatty acid
Method: as §1

p38 = assay: TNF-stimulated MAP kinase activity in HUVEC; assay type: cell-based, human; conditions: HUVEC pre-treated with the fatty acid
Method: as §1

[1] = Tolerability of intravenous MP3; assay type: in vivo, mice; conditions: 50 mg/kg intravenously, 4 days
Description: In accordance with the present invention, a novel engineered polyunsaturated fatty acid, β-oxa-23:4n-6 (MP3) (FIG. 5) is identified which has the hall-marks of a new class of pharmaceuticals based on polyunsaturated fatty acids and which can be used to prevent and/or treat cardiovascular disease. […] The focus of this embodiment of the subject invention is, therefore, the efficacy of MP3 at suppressing adhesion molecule expression in vivo and the development of atherosclerosis.

Effect on ability of TNF to stimulate ERK (ERK): did not affect
Effect on ability of TNF to stimulate JNK (JNK): did not affect
Effect on ability of TNF to stimulate p38 (p38): did not affect
Structure (SMILES): CCCCC/C=C\C/C=C\C/C=C\C/C=C\CCCCOCC(=O)O [MP3, β-oxa-23:4n-6]
Inhibition of LPS- or PMA-induced neutrophil adhesion to HUVEC (HUVEC): inhibited the increase in neutrophil adhesion
Inhibition of TNF-α-enhanced neutrophil adhesion to HUVEC (HUVEC): greatest suppression
Inhibition of TNF-α-enhanced neutrophil adhesion to HUVEC (HUVEC; listed as β-oxa 23:4n-6): most active
Inhibition of TNF-α-enhanced neutrophil adhesion to HUVEC (HUVEC; listed as β-oxa-23:4n-6): inhibited their ability to be stimulated
Concentration with significant suppression of TNF-α-induced neutrophil adhesion (HUVEC; pre-treatment time of 1 hr): ≥ 5 µmol/L
LPS-induced E-selectin expression in aortic endothelium (E-selectin): effective in vivo at suppressing LPS-stimulated up-regulation of E-selectin expression
LPS-induced E-selectin expression in aortic endothelium (E-selectin; listed as β-oxa-23:4n-6): significant reduction in LPS-induced E-selectin expression
Reduction of TNF-stimulated nuclear accumulation of NFκB (NFκB p65; 30 min, TNF 2 hr, mean±SEM, three experiments): 66±2%
Translocation of NFκB to the nucleus (NFκB p65; TNF): inhibition of translocation of NFκB to the nucleus
Observable signs of distress [1]: did not cause any observable signs of distress
